According to patent US7723088B2, “DNA sequences involved in prenylflavonoid biosynthesis in hops and their use in modifying prenylflavonoid production in plants” (priority 2005, dated 2010):
“Also recorded” adds a separate entry of the source.

Key:
[1] = molecular target: T1, HIOMT2 (OMT2) O-methyltransferase (Humulus lupulus, UniProt B0ZB56); test: 14C-SAM methylation enzyme assay with recombinant HIOMT2 (OMT2) insect cell lysate; format: biochemical; conditions: recombinant enzyme from Sf9 insect cell lysate, 14C-SAM methyl donor, ethyl acetate extract, scintillation counting
T1 construct: The open reading frame of each enzyme was cloned into the baculovirus expression vector pFastBacHT (Invitrogen); 6xHis with TEV site, from the pFastBacHT vector (own knowledge); made in house; host or cells: Spodoptera frugiperda (Sf9) insect cells, baculovirus; crude cell lysate
T1 sequence (B0ZB56 1-360): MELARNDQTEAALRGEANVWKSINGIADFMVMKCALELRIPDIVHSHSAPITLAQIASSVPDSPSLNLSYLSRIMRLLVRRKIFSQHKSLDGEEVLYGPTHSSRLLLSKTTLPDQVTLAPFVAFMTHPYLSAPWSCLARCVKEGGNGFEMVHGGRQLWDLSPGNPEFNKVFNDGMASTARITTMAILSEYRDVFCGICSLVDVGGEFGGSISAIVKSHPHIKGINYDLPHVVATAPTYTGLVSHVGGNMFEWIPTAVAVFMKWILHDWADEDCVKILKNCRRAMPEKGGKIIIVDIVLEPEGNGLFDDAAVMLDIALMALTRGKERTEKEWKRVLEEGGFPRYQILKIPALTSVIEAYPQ
Source text: (§1) The open reading frame of each enzyme was cloned into the baculovirus expression vector pFastBacHT (Invitrogen) and the resulting bacmid generated using the Bac-to-Bac system (Invitrogen). The bacmid was used to transfect Spodoptera frugiperda (Sf9) insect cells. After amplification of the baculovirus through several passages, insect cell monolayers were infected, cultivated for 2-4 days and then centrifuged to separate cells from culture media. Cell pellets were lysed and aliquots used directly in enzyme assay containing ^14C—S-adenosyl methionine (^14C-SAM) as a methyl donor and various phenolic and phenylpropanoid natural products as substrates. Methylation activity was measured by the extraction of the enzyme reaction with ethyl acetate and its analysis by scintillation counting. In this assay, ^14C-methylation of one of the proffered substrates is indicated by the presence of radioactivity in the ethyl acetate extract.

[2] = molecular target: T2, HIOMT1 (OMT1) O-methyltransferase (Humulus lupulus, UniProt B0ZB55, L311X); test: 14C-SAM methylation enzyme assay with recombinant HIOMT1 (OMT1) insect cell lysate; format: biochemical; conditions: for methylation of substrate by OMT1: recombinant enzyme from Sf9 insect cell lysate, 14C-SAM methyl donor, ethyl acetate extract, scintillation counting
T2 construct: The open reading frame of each enzyme was cloned into the baculovirus expression vector pFastBacHT (Invitrogen); 6xHis with TEV site, from the pFastBacHT vector (own knowledge); made in house; host or cells: Spodoptera frugiperda (Sf9) insect cells, baculovirus; crude cell lysate
Description: FIG. 3. Enzymatic activity of HIOMT1 showing that this enzyme methylates desmethylxanthohumol to produce xanthohumol. […] Recombinant HIOMT1 was expressed in insect cells and crude cell lysate used for enzymatic assay. (A) Radio-HPLC analysis of reaction products from empty vector control lysate incubated with ^14C-SAM and desmethylxanthohumol. (B) Radio-HPLC analysis of reaction products from HIOMT1 lysate incubated with ^14C-SAM. (C) Radio-HPLC analysis of reaction products HIOMT1 lysate incubated with ^14C-SAM and desmethylxanthohumol showing that xanthohumol is formed (D) Reversed-phase HPLC analysis of authentic xanthohumol.
as §1

## O=C(/C=C/c1ccc(O)cc1)c1ccccc1O [2′,4-dihydroxychalcone]
[1]
  methylation of substrate by OMT2: methylate

## O=C(/C=C/c1ccc(O)c(O)c1)c1ccc(O)cc1O [butein]
[1]
  methylation of substrate by OMT2: methylate

## Oc1ccccc1O [catechol]
[1]
  methylation of substrate by OMT2: methylate

## O=C(/C=C/c1ccc(O)cc1)c1c(O)cc(O)cc1O [chalconaringenin]
[1]
  methylation of substrate by OMT2: methylate

## CC(C)=CCc1c(O)cc(O)c(C(=O)/C=C/c2ccc(O)cc2)c1O [desmethylxanthohumol]
[1]
  methylation of substrate by OMT2: capable of using desmethylxanthohumol as a substrate; also recorded: methylate
[2]; crude insect cell lysate, 14C-SAM, radio-HPLC analysis, product xanthohumol
  methylation by HIOMT1, reaction product by radio-HPLC (FIG. 3): methylates desmethylxanthohumol to form xanthohumol
[2]
  methylation of substrate by OMT1: capable of using desmethylxanthohumol as a substrate; also recorded: methylate

## C=CCc1ccc(O)c(OC)c1 [eugenol]
[1]
  methylation of substrate by OMT2: methylate

## O=c1c(-c2ccc(O)cc2)coc2cc(O)cc(O)c12 [genistein]
[1]
  methylation of substrate by OMT2: methylate

## COc1ccccc1O [guaiacol]
[1]
  methylation of substrate by OMT2: methylate

## O=C(/C=C/c1ccc(O)cc1)c1ccc(O)cc1O [isoliquiritigenin]
[1]
  methylation of substrate by OMT2: methylate

## Cc1cc(O)cc(O)c1 [orcinol]
[1]
  methylation of substrate by OMT2: methylate

## Oc1cccc(O)c1 [resorcinol]
[1]
  methylation of substrate by OMT2: methylate

## Oc1ccc(C=Cc2cc(O)cc(O)c2)cc1 [resveratrol]
[1]
  methylation of substrate by OMT2: methylate

## COc1cc(O)c(C(=O)/C=C/c2ccc(O)cc2)c(O)c1CC=C(C)C [xanthogalenol]
[2]
  methylation of substrate by OMT1: methylate

## COc1cc(O)c(CC=C(C)C)c(O)c1C(=O)C=Cc1ccc(O)cc1 [xanthohumol, 1-[2,4-dihydroxy-6-methoxy-3-(3-methylbut-2-enyl)phenyl]-3-(4-hydroxyphenyl)-prop-2-en-1-one]
[1]
  methylation of substrate by OMT2: methylate
